Measured values published in patent US9782428B2, “Method for generation of broadly neutralizing anti-pathogen antibodies” (Northeastern University, priority 2013, dated 2017).
“Also recorded” adds a separate entry of the source.

Experiments:
resting B cells = assay: In vitro class switch recombination IgM to IgG1 in resting B cells stimulated with anti-CD40 and IL-4; type: cell-based, mice; details: four days in culture; for class switching of IgM to IgG1: gated on B220+, vs untreated B cells
Experimental: Female C57 B/6 mice were sacrificed and spleens harvested and generated into single cell suspensions. Lymphocytes were isolated using Ficoll separation (GE Healthcare) and interface layer was collected after centrifugation (1000×g for 10 minutes). Cells were FC Blocked as described above and then stained with CD43 FITC (clone S7) and then washed and stained with anti-FITC microbeads (Miltenyi) at 4° C. for 30 minutes. Cells were then depleted using magnetic separation autoMACS deplete(s) program (Miltenyi). The depleted fraction was used for experiments as these consist of resting B cells.
B cells plated in a 24 well plate at 200,000 cells pre well with IMDM media, as described in Example 3 (1 ml media/well). B cells were then stimulated using anti-CD40 antibody (2.5 μg/ml clone IC-10 eBiosciences) and recombinant mouse IL-4 (10 ng/ml, R&D). […] All stimulating reagents were added at the seeding of the culture on day 0 and no other drugs were added thereafter.
After four days in culture, amount of class switch to IgG1 was determined by flow cytometric analysis by staining with anti-mouse IgM, IgG1, and B220. Plots are all gated on B220+ cells (FIG. 8A-8F)

germinal center B cells = assay: Flow cytometric analysis of germinal center B cells from immunized mice treated with CGS-21680 (Experiments 1 and 3); type: in vivo
Experimental: All mice were sacrificed on day 6.
All mice were sacrificed on day 21.
Flow cytometric analysis of germinal center B cells from Experiment 1 (gated as lymphocytes, B220+, Gl-7 positive, CD38 negative; FIGS. 10E and 10F) and Experiment 3 (B220 positive, Gl-7 hi, IgD-negative; FIG. 10D) was performed. The flow cytometric analysis was performed according to the protocol discussed in Example.

[1] = test system: Gs coupled protein receptor; details: dopamine at day 44 and day 62 plus inspiration of hyperoxic gas mixture; day 47 and day 65; vs untreated mice
Experimental: 12 male wild type C57 B/6 mice 10-12 weeks of age are immunized as described in Example 1. At day 21, the mice are given an immune boost of 1 μg NP-OVA with adjuvant via intraperitoneal injection. At day 42, the mice are given an immune challenge of 1 μg NP-OVA without adjuvant via tail vein injection. […] Samples at 5 days and 23 days post immune challenge (i.e., day 47 and day 65 of the assay) will be subjected to ELISA measurement for NIP-25.

[2] = Experiment 1, 5 subcutaneous injections 1 mg/kg days 4-6, sacrificed day 6

Structure (SMILES)	class switching of IgM to IgG1 (resting B cells; 10 μM)	amount of class switched NP-PE binding cells (germinal center B cells; [2])	proportion of class switched IgG1 germinal center B cells (germinal center B cells; [2])	proportion of class switched IgG1 germinal center B cells (germinal center B cells; Experiment 1, 5 subcutaneous injections 1 mg/kg days 4-6, sacrificed day 6, listed as CGS-21680)	frequency of germinal center B cells (germinal center B cells; Experiment 3, 1 mg/kg subcutaneous twice daily day 8-20, sacrificed day 21, compared to control)	levels of NIP-25 [1]	class switching of IgM to IgG1, dependence on concentration (resting B cells; 100 nM, 1 μM, 10 μM)	class switching of IgM to IgG1 (resting B cells; 100 nM)	class switching of IgM to IgG1 (resting B cells; 1 μM)
CCNC(=O)[C@H]1O[C@@H](n2cnc3c(N)nc(NCCc4ccc(CCC(=O)O)cc4)nc32)[C@H](O)[C@@H]1O [CGS21680]	has class switching	higher amount	enhanced class switching	increased proportion	decrease				
NCCc1ccc(O)c(O)c1 [dopamine]						higher levels			
CCNC(=O)[C@H]1O[C@@H](n2cnc3c(N)ncnc32)[C@H](O)[C@@H]1O [NECA, N-ethylcarboxyamidoadenosine]	has class switching						class switching increases as the concentration of NECA increases	increases the class switching; also recorded: has class switching	has class switching
